What follows are compounds tested against KRAS G12C protein (Homo sapiens, UniProt P01116, G12C) (assay: Nucleotide exchange assay (Method III, KRAS G12C/Raf-RBD TR-FRET)). Details: SOS1-mediated exchange of GDP for GTP, 18 hr compound incubation.
Assay type: biochemical
Description: Method III. Inhibition of SOS1-mediated exchange of GDP for GTP on the KRAS G12C protein was measured in a biochemical assay that monitors association of KRAS G12C protein with the Ras-binding domain of Raf (Raf-RBD), where the association is coupled to exchange of GDP to GTP on the KRAS G12C protein. The assay was performed at WuXi AppTec (Shanghai, China). Compounds were serially diluted in 3-fold dilutions to 11 concentrations and spotted into the wells of an assay plate in a total volume of 150 nL DMSO per well. A 2× enzyme mix was prepared by diluting GDP-bound, His-tagged KRAS G12C to 25 nM in assay buffer. 10 μL/well of 2× enzyme mix was added to all wells, and the plate was sealed and incubated overnight (18 hr) at 23° C. 4×SOS1/GDP and 4×SOS1/GTP were prepared in assay buffer. 5 μL/well of 4×SOS1/GDP mix was added to negative control wells, 5 μL/well of 4×SOS1/GTP mix was added to the remaining wells, and the plate was further incubated at 23° C. for 1 hr. Finally, FLAG-tagged Raf-RBD is added to the reaction mixture along with a pair of FRET donor- and acceptor-conjugated antibodies specific for the FLAG-tagged Raf-RBD and His-tagged KRAS G12C proteins. A 4×Raf-RBD/Tb-anti-FLAG/D2-anti-His mix was prepared in assay buffer, and 5 μL/well of the mix was added to all wells, followed by incubation at room temperature for 2 hr. The TR-FRET signals, which increase with association of KRAS G12C and Raf-RBD, were measured on a Perkin Elmer Envision 2104 plate reader, and data were analyzed by non-linear regression to obtain IC50 values for inhibition by compounds. Table 2 includes results of the assay of Method III. ‘+++’ indicates IC50 values≤300 nM, ‘++’ indicates IC50 values between 300 nM-3 μM, and ‘+’ indicates IC50 values≥3 μM.

Sequence of KRAS G12C protein (P01116 1-188 isoform P01116-2 G12C): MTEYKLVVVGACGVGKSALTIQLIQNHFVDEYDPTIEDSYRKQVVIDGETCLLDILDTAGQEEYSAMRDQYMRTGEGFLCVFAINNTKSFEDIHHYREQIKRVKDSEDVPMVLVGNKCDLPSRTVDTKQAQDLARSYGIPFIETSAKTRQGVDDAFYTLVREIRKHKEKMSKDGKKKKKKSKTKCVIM

Structure (SMILES)	IC50 [µM]
C=C(F)C(=O)N1CCN(c2nc(OC[C@@H]3CCCN3C)nc3c2COC(c2cccc4cccc(Cl)c24)C3)C[C@H]1C (single isomer, unassigned) [42 (Isomer A)]	≥ 3
C=C(F)C(=O)N1CCN(c2nc(OC[C@@H]3CCCN3C)nc3c2COC(c2cccc4cccc(Cl)c24)C3)CC1(C)C (single isomer, unassigned) [238 (Isomer A)]	≥ 3
C=C(F)C(=O)N1CCN(c2nc(N3CCC(N(CC)CC)CC3)nc3c2COC(c2cccc4cccc(Cl)c24)C3)C[C@@H]1CC#N (single isomer, unassigned) [230 (Isomer A)]	≥ 3
C=C(Cl)C(=O)N1CCN(c2nc(OC[C@@H]3CCCN3C)nc3c2COC(c2cccc4cccc(Cl)c24)C3)C[C@@H]1CC#N (single isomer, unassigned) [239 (Isomer A)]	≥ 3
C=C(F)C(=O)N1CCN(c2nc(OC[C@@H]3CCCN3C)nc3c2COC(c2cccc4cccc(Cl)c24)C3)[C@@H](C)C1 (single isomer, unassigned) [44 (Isomer A)]	≥ 3
C=CC(=O)N1CCN(c2nc(OC[C@@H]3CCCN3C)nc3c2COC(c2cccc4cccc(Cl)c24)C3)C[C@@H]1CC#N (single isomer, unassigned) [38 (Isomer A)]	0.3 to 3
C=C(F)C(=O)N1CCN(c2nc(N3CC(N(CC)CC)C3)nc3c2COC(c2cccc4cccc(Cl)c24)C3)C[C@@H]1CC#N (single isomer, unassigned) [229 (Isomer B)]	≥ 3
C=C(F)C(=O)N1[C@H](C)CN(c2nc(OC[C@@H]3CCCN3C)nc3c2COC(c2cccc4cccc(Cl)c24)C3)C[C@@H]1C (single isomer, unassigned) [237 (Isomer B)]	≥ 3
C=C(F)C(=O)N1CCN(c2nc(OC3CN(C)CC3C)nc3c2COC(c2cccc4cccc(Cl)c24)C3)C[C@@H]1CC#N (single isomer, unassigned) [272 (Isomer A)]	≥ 3
C=C(C)C(=O)N1CCN(c2nc(OC[C@@H]3CCCN3C)nc3c2COC(c2cccc4cccc(Cl)c24)C3)C[C@@H]1CC#N (single isomer, unassigned) [240 (Isomer B)]	≥ 3
C=C(F)C(=O)N1CCN(c2nc(OC3CN(C)CC3C)nc3c2COC(c2cccc4cccc(Cl)c24)C3)C[C@@H]1CC#N (single isomer, unassigned) [272 (Isomer C)]	≤ 0.3
C=C(C)C(=O)N1CCN(c2nc(OC[C@@H]3CCCN3C)nc3c2COC(c2cccc4cccc(Cl)c24)C3)C[C@@H]1CC#N (single isomer, unassigned) [240 (Isomer A)]	≥ 3
CN(C)C/C=C/C(=O)N1CCN(c2nc(OC[C@@H]3CCCN3C)nc3c2COC(c2cccc4cccc(Cl)c24)C3)C[C@@H]1CC#N (single isomer, unassigned) [242 (Isomer A)]	≥ 3
C=CC(=O)N1CCN(c2nc(OC[C@@H]3CCCN3C)nc3c2OCC(c2cccc4cccc(Cl)c24)O3)CC1 (single isomer, unassigned) [135 (Isomer B)]	≥ 3
CN(C)C/C=C/C(=O)N1CCN(c2nc(OC[C@@H]3CCCN3C)nc3c2COC(c2cccc4cccc(Cl)c24)C3)C[C@@H]1CC#N (single isomer, unassigned) [242 (Isomer B)]	≤ 0.3
C/C=C/C(=O)N1CCN(c2nc(OC[C@@H]3CCCN3C)nc3c2COC(c2cccc4cccc(Cl)c24)C3)C[C@@H]1CC#N (single isomer, unassigned) [241 (Isomer B)]	0.3 to 3
C=C(F)C(=O)N1CCN(c2nc(OC[C@@H]3CCCN3C)nc3c2COC(c2cccc4cccc(Cl)c24)C3(C)C)C[C@@H]1CC#N (single isomer, unassigned) [258 (Isomer A)]	≥ 3
C=C(F)C(=O)N1CCN(c2nc(OC[C@@H]3CCCN3C)nc3c2CC=C(c2cccc4cccc(Cl)c24)O3)CC1 [Compound 174, (S)-1-(4-(7-(8-chloronaphthalen-1-yl)-2-((1-methylpyrrolidin-2-yl)methoxy)-5H-pyrano[2,3-d]pyrimidin-4-yl)piperazin-1-yl)-2-fluoroprop-2-en-1-one]	≥ 3
C=C(F)C(=O)N1CCN(c2nc(OC[C@@H]3CCCN3C)nc3c2COC(c2cccc4cccc(Cl)c24)C3)CC1(C)C (single isomer, unassigned) [238 (Isomer B)]	≥ 3
C=C(F)C(=O)N1CCN(c2nc(OC3CCN(C)CC3)nc3c2COC(c2cccc4cccc(Cl)c24)C3)C[C@@H]1CC#N (single isomer, unassigned) [234 (Isomer B)]	0.3 to 3

Structure (SMILES)	IC50 [µM]
C=C(F)C(=O)N1CCN(c2nc(Oc3cccc4c3CCN(C)C4)nc3c2COC(c2cccc4cccc(Cl)c24)C3)C[C@@H]1CC#N (single isomer, unassigned) [250 (Isomer B)]	0.3 to 3
C=C(F)C(=O)N1C[C@H](C)N(c2nc(OC[C@@H]3CCCN3C)nc3c2COC(c2cccc4cccc(Cl)c24)C3)C[C@H]1C (single isomer, unassigned) [235 (Isomer B)]	≥ 3
C=C(F)C(=O)N1CCN(c2nc(OC[C@@H]3CCCN3C)nc3c2COC(c2cccc4sc(N)nc24)C3)C[C@@H]1CC#N (single isomer, unassigned) [260 (Isomer B)]	≤ 0.3
CC#CC(=O)N1CCN(c2nc(OC[C@@H]3CCCN3C)nc3c2COC(c2cccc4cccc(Cl)c24)C3)C[C@@H]1CC#N (single isomer, unassigned) [243 (Isomer A)]	≥ 3
C=C(F)C(=O)N1CCN(c2nc(OC3CN(C)CC3C)nc3c2COC(c2cccc4cccc(Cl)c24)C3)C[C@@H]1CC#N (single isomer, unassigned) [272 (Isomer B)]	≥ 3
C=C(F)C(=O)N1CCN(c2nc(OC[C@@H]3CCCN3C)nc3c2CC=C(c2cccc4cccc(Cl)c24)O3)C[C@H]1C [Compound 154, 1-((R)-4-(7-(8-chloronaphthalen-1-yl)-2-(((S)-1-methylpyrrolidin-2-yl)methoxy)-5H-pyrano[2,3-d]pyrimidin-4-yl)-2-methylpiperazin-1-yl)-2-fluoroprop-2-en-1-one]	≥ 3
C=C(F)C(=O)N1CCN(c2nc(OC[C@@H]3CCCN3C)nc3c2OCC(c2cccc4cccc(Cl)c24)O3)C[C@@H]1CC#N (single isomer, unassigned) [64 (Isomer A)]	0.3 to 3
C=C(F)C(=O)N1CCN(c2nc(OC[C@@H]3CCCN3C)nc3c2OCC(c2cccc4cccc(Cl)c24)O3)[C@@H](C)C1 (single isomer, unassigned) [136 (Isomer A)]	≥ 3
C=C(F)C(=O)N1[C@H](C)CN(c2nc(OC[C@@H]3CCCN3C)nc3c2COC(c2cccc4cccc(Cl)c24)C3)C[C@@H]1C (single isomer, unassigned) [237 (Isomer A)]	≥ 3
C=C(F)C(=O)N1CCN(c2nc(NCCC(=O)N(C)C)nc3c2COC(c2cccc4cccc(Cl)c24)C3)C[C@@H]1CC#N (single isomer, unassigned) [232 (Isomer A)]	0.3 to 3
C=C(F)C(=O)N1CCN(c2nc(OC[C@@H]3CCCN3C)nc3c2OCC(c2cccc4cccc(Cl)c24)O3)[C@@H](C)C1 (single isomer, unassigned) [136 (Isomer B)]	≥ 3
C=C(F)C(=O)N1CCN(c2nc(N3CCC(N(CC)CC)CC3)nc3c2COC(c2cccc4cccc(Cl)c24)C3)C[C@@H]1CC#N (single isomer, unassigned) [230 (Isomer B)]	0.3 to 3
C=CC(=O)N1CCN(c2nc(OC[C@@H]3CCCN3C)nc3c2OCC(c2cccc4cccc(Cl)c24)O3)CC1 (single isomer, unassigned) [135 (Isomer A)]	≥ 3
C=C(F)C(=O)N1CCN(c2nc(Oc3cccc4c3CCN(C)C4)nc3c2COC(c2cccc4cccc(Cl)c24)C3)C[C@@H]1CC#N (single isomer, unassigned) [250 (Isomer A)]	0.3 to 3
C=C(F)C(=O)N1CCN(c2nc(Nc3cnn(C)c3)nc3c2COC(c2cccc4cccc(Cl)c24)C3)C[C@@H]1CC#N (single isomer, unassigned) [233 (Isomer A)]	≥ 3
C=C(F)C(=O)N1CCN(c2nc(Oc3cccc4c3CN(C)CC4)nc3c2COC(c2cccc4cccc(Cl)c24)C3)C[C@@H]1CC#N (single isomer, unassigned) [249 (Isomer A)]	0.3 to 3
C=C(F)C(=O)N1CCN(c2nc(OC[C@@H]3CCCN3C)nc3c2COC(c2c(C)ccc4[nH]ncc24)C3)C[C@@H]1CC#N (single isomer, unassigned) [52 (Isomer A)]	0.3 to 3
C=C(F)C(=O)N1CCN(c2nc(OC3CCN(C)CC3)nc3c2COC(c2cccc4cccc(Cl)c24)C3)C[C@@H]1CC#N (single isomer, unassigned) [234 (Isomer A)]	≥ 3
C=C(F)C(=O)N1CCN(c2nc(OC3CN(C)CC3C)nc3c2COC(c2cccc4cccc(Cl)c24)C3)C[C@@H]1CC#N (single isomer, unassigned) [272 (Isomer D)]	0.3 to 3
C=C(F)C(=O)N1CCN(c2nc(Oc3cccc4c3CN(C)CC4)nc3c2COC(c2cccc4cccc(Cl)c24)C3)C[C@@H]1CC#N (single isomer, unassigned) [249 (Isomer B)]	≥ 3

— patent US20230023009A1, “HETEROCYCLIC COMPOUNDS AND METHODS OF USE THEREOF” (SPARCBIO LLC, priority 2020, published 2023)
